Laboratory results published in patent publication US20240189305A1, “THERAPEUTIC AGENT FOR CORONAVIRUS INFECTION” (FUJIFILM TOYAMA CHEMICAL CO., LTD., priority 2021, published 2024).

Test system: SARS-CoV-2
Assay: Test example 1: placebo-controlled, stratified-randomized, multicenter, double-blind phase 3 study in COVID-19 patients with a risk factor for disease progression at an early stage after onset
Format: in vivo
Settings: patients 50 years or older, onset within 72 hours; oral 1,800 mg twice/day for 1 day + 800 mg twice/day for 9 days

## NC(=O)c1nc(F)cnc1O [Compound A, 6-fluoro-3-hydroxy-2-pyrazinecarboxamide]
  therapeutic effect by primary endpoint (proportion of patients with disease progression up to Day 28) and/or secondary endpoints versus placebo: therapeutic effect is higher in the Compound A group than in the placebo group
